Consider 50 compounds from the supplement of paper PMC3974653.

Test [1] relates to MTT (mouse pheochromocytoma). Kind of test: IC50 of cell viability (ATP content); AC50 where efficacy is positive. The settings on record: (24 or 48 h).
For test [2], the system named is MTT (mouse pheochromocytoma). Kind of test: efficacy (maximal response) relative to doxorubicin = -100% and DMSO = 0%; higher = less inhibition of viability. Particulars: (24 or 48 h).

Where a name gives a salt, the structure may show the parent alone.

With `CCCCCCCCCCCCCC[n+]1ccc(C)cc1` [MYRISTYL-GAMMA-PICOLINIUM CHLORIDE], in test [1], the “IC50 of cell viability” value came out at 0.531 µM. For the same compound, the efficacy in test [2] is -39.7%.

`CN(C)C1=CC=C(C=C1)C(C2=CC=CC=C2)=C/3\C=C/C(/C=C3)=[N+](C)C` [Malachite Green Oxalate]: the “IC50 of cell viability” value in test [1] came to 8.41 µM. The efficacy in test [2] is -61.3%.

Turning to `COC(=O)Nc1nc2cc(C(=O)c3ccccc3)ccc2[nH]1` [Mebendazole], the “IC50 of cell viability” value in test [1] was 0.64 µM. Moreover, in test [2], the efficacy was -49.2%.

Consider `CCCCCCCCCCCCCCCC[N+](C)(C)CC` [Mecetronium ethylsulfate], for which, in test [1], the “IC50 of cell viability” value was determined as 11.9 µM. Moreover, in test [2], the efficacy is -78.5%.

As to `Cc1cc(O)c2ccccc2c1O` [Menadiol], in test [1], the “IC50 of cell viability” value was 26.6 µM. In addition, the efficacy in test [2] is -94.6%.

Turning to `[Hg+2]` [Mercuric chloride], the “IC50 of cell viability” value in test [1] was 2.37 µM. Further, the efficacy in test [2] is -90.3%.

Consider `COCC(=O)O[C@]1(CCN(C)CCCc2nc3ccccc3[nH]2)CCc2cc(F)ccc2[C@@H]1C(C)C.Cl.Cl` [Mibefradil dihydrochloride], for which the “IC50 of cell viability” value in test [1] is 11.9 µM. In test [2], the efficacy was -97.9%.

As for `Oc1ccc(OCc2ccccc2)cc1` [Monobenzone], the “IC50 of cell viability” value in test [1] turned out to be 10.1 µM. Besides, the efficacy in test [2] was -55.4%.

As to `CCC(C(=O)O)C1OC(C(C)C(O)C(C)C(=O)C(CC)C2OC3(C=CC(O)C4(CCC(C)(C5CCC(O)(CC)C(C)O5)O4)O3)C(C)CC2C)C(C)CC1C` (stereo not given) [NARASIN], the “IC50 of cell viability” value in test [1] turned out to be 1.68 µM. Besides, the efficacy in test [2] was -46.7%.

On to `COc1cc(-c2ccc(-[n+]3nc(-c4ccccc4)nn3-c3ccc([N+](=O)[O-])cc3)c(OC)c2)ccc1-[n+]1nc(-c2ccccc2)nn1-c1ccc([N+](=O)[O-])cc1` [NITROBLUE TETRAZOLIUM CHLORIDE], for which the “IC50 of cell viability” value in test [1] came out at 21.1 µM. Moreover, in test [2], the efficacy is -107%.

For the compound `O=C(Nc1ccc([N+](=O)[O-])cc1)Nc1ccc([N+](=O)[O-])cc1` [Nicarbazin], in test [1], the “IC50 of cell viability” value turned out to be 10.6 µM. Further, the efficacy in test [2] was -44.1%.

In the case of `O=C(Nc1ccc([N+](=O)[O-])cc1Cl)c1cc(Cl)ccc1O` [Niclosamide], in test [1], the “IC50 of cell viability” value stood at 0.473 µM. Also, the efficacy in test [2] was -41.1%.

Consider `O=[N+]([O-])c1ccc(O)c2ncccc12` [Nitroxoline], for which the “IC50 of cell viability” value in test [1] came out at 21.1 µM. Also, in test [2], the efficacy was -85.8%.

As to `COC(=O)Nc1nc2cc(C(=O)c3cccs3)ccc2[nH]1` [Nocodazole], in test [1], the “IC50 of cell viability” value is 0.531 µM. Besides, the efficacy in test [2] was -60.2%.

As for `C[N+]1(CC2COC(c3ccccc3)(C3CCCCC3)O2)CCCCC1` (stereo not given) [OXAPIUM IODIDE], in test [1], the “IC50 of cell viability” value turned out to be 6.68 µM. Also, in test [2], the efficacy is -60.2%.

As to `CCCOc1ccc2[nH]c(NC(=O)OC)nc2c1` [OXIBENDAZOLE], the “IC50 of cell viability” value in test [1] worked out at 0.531 µM. In addition, the efficacy in test [2] was -39%.

Regarding `Oc1cc[c]([Hg][Cl])cc1` [PARA-CHLOROMERCURIPHENOL], the “IC50 of cell viability” value in test [1] turned out to be 2.37 µM. In addition, the efficacy in test [2] is -97.8%.

For the compound `CC(=O)[O][Hg][c]1ccccc1` [PHENYLMERCURIC ACETATE], in test [1], the “IC50 of cell viability” value amounted to 2.37 µM. Also, the efficacy in test [2] is -93.4%.

Consider `[Hg+][c]1ccccc1` [PHENYLMERCURIC BORATE], for which, in test [1], the “IC50 of cell viability” value was determined as 2.99 µM. For the same compound, in test [2], the efficacy was -91.5%.

`O=Cc1ccccc1C=O` [PHTHARAL]: in test [1], the “IC50 of cell viability” value amounted to 13.3 µM. Further, in test [2], the efficacy is -54.4%.

As to `Cc1cc(CC(C)CC(C)(C)C)n(O)c(=O)c1` (stereo not given) [PIROCTONE OLAMINE], the “IC50 of cell viability” value in test [1] amounted to 15 µM. For the same compound, the efficacy in test [2] was -49%.

As for `Nc1ccc2cc3ccc(N)cc3nc2c1` [PROFLAVINE HEMISULFATE], the “IC50 of cell viability” value in test [1] amounted to 8.41 µM. Further, in test [2], the efficacy was -91.5%.

As to `COc1ccc(CC(N)C(=O)NC2C(CO)OC(n3cnc4c(N(C)C)ncnc43)C2O)cc1.Cl.Cl` (stereo not given) [PUROMYCIN HYDROCHLORIDE], the “IC50 of cell viability” value in test [1] stood at 11.9 µM. In addition, the efficacy in test [2] was -63.1%.

For `CC(=O)O[C@H]1C(=O)[C@@]2(C)[C@H]([C@H](OC(=O)c3ccccc3)[C@]3(O)CC(OC(=O)C(O)C(NC(=O)c4ccccc4)c4ccccc4)C(C)=C1C3(C)C)[C@]1(OC(C)=O)CO[C@@H]1C[C@@H]2O` (stereo not given in full) [Paclitaxel], the “IC50 of cell viability” value in test [1] worked out at 0.0376 µM. Further, the efficacy in test [2] is -50.9%.

For the compound `CCCCc1ccc2[nH]c(NC(=O)OC)nc2c1` [Parbendazole], the “IC50 of cell viability” value in test [1] turned out to be 0.453 µM. In test [2], the efficacy is -45.1%.

As to `C=C1C(=O)O[C@@H]2[C@@H]1CC/C(C)=C\CC[C@@]1(C)O[C@H]21` [Parthenolide], the “IC50 of cell viability” value in test [1] turned out to be 8.41 µM. In addition, the efficacy in test [2] was -104%.

As for `NNCCc1ccccc1` [Phenelzine sulfate], the “IC50 of cell viability” value in test [1] stood at 5.08 µM. Moreover, the efficacy in test [2] was -52.6%.

As for `Cc1ccc2c(c1)c1c3n2CCNC3CCC1` (stereo not given) [Pirlindole mesylate], in test [1], the “IC50 of cell viability” value amounted to 21.1 µM. For the same compound, in test [2], the efficacy was -45.7%.

With `CC(C)NC(=N)NC(=N)Nc1ccc(Cl)cc1` [Proguanil hydrochloride], the “IC50 of cell viability” value in test [1] was found to be 4.53 µM. Also, in test [2], the efficacy was -59%.

Consider `CCc1nc(N)nc(N)c1-c1ccc(Cl)cc1` [Pyrimethamine], for which the “IC50 of cell viability” value in test [1] stood at 8.41 µM. Further, the efficacy in test [2] is -35%.

Take `Cc1cc(/C=C\c2ccc3cc(N(C)C)ccc3[n+]2C)c(C)n1-c1ccccc1.Cc1cc(/C=C\c2ccc3cc(N(C)C)ccc3[n+]2C)c(C)n1-c1ccccc1.O=C([O-])c1cc2ccccc2c(Cc2c(O)c(C(=O)[O-])cc3ccccc23)c1O` [Pyrvinium pamoate]: the “IC50 of cell viability” value in test [1] is 0.64 µM. Also, the efficacy in test [2] is -33.3%.

In the case of `COc1cc(NCCCC(C)N)c2ncccc2c1` (stereo not given) [QUINOCIDUM], the “IC50 of cell viability” value in test [1] is 18.8 µM. Moreover, the efficacy in test [2] is -93.9%.

For the compound `CCN1/C(=C/C=C/c2ccc3ccccc3[n+]2CC)C=Cc2ccccc21` [Quinaldine blue], the “IC50 of cell viability” value in test [1] is 0.299 µM. In test [2], the efficacy was -34.9%.

Consider `C#C[C@]1(O)CC[C@H]2[C@@H]3CCc4cc(OC5CCCC5)ccc4[C@H]3CC[C@@]21C` [Quinestrol], for which the “IC50 of cell viability” value in test [1] was 18.8 µM. In addition, the efficacy in test [2] is -61.1%.

As to `COC(=O)C12CCC(C)(C)CC1C3C(=O)\C=C4/C(C)(CCC5C(C)(C)C(=O)\C(=C/C45C)C#N)C3(C)CC2` (stereo not given) [RTA 402], the “IC50 of cell viability” value in test [1] was 6.68 µM. The efficacy in test [2] was -108%.

Regarding `CC[C@@]1(O)C(=O)OC/C2=C1/C=C/3N(CC4=CC5=C(C=CC=C5[N+]([O-])=O)N=C34)C2=O` [RUBITECAN], the “IC50 of cell viability” value in test [1] stood at 0.422 µM. For the same compound, the efficacy in test [2] was -54.5%.

Turning to `C[C@@H]1CN(CCCn2c3ccccc3c3ccccc32)C[C@H](C)N1` [Rimcazole dihydrochloride], the “IC50 of cell viability” value in test [1] was 21.1 µM. In addition, the efficacy in test [2] was -89.8%.

Consider `C=C(C)[C@H]1Cc2c(ccc3c2O[C@@H]2COc4cc(OC)c(OC)cc4[C@@H]2C3=O)O1` [Rotenone], for which the “IC50 of cell viability” value in test [1] was found to be 2.66 µM. In addition, in test [2], the efficacy was -124%.

Regarding `[Na+].CCC(C1CCC(C)C(O1)C(C)C(O)C(C)C(=O)C(CC)C2OC\3(O[C@]4(CC[C@@](C)(O4)C5CC[C@@](O)(CC)C(C)O5)C(O)\C=C3)C(C)CC2C)C([O-])=O` (stereo not given in full) [SALINOMYCIN, SODIUM], the “IC50 of cell viability” value in test [1] stood at 3.35 µM. Further, the efficacy in test [2] is -47.9%.

Take `CNC(=O)c1cc(Oc2ccc(NC(=O)Nc3ccc(Cl)c(C(F)(F)F)c3)cc2)ccn1` [SORAFENIB TOSYLATE]: in test [1], the “IC50 of cell viability” value turned out to be 8.41 µM. Also, the efficacy in test [2] is -44.4%.

For the compound `O=C(CCCCCCC(=O)Nc1ccccc1)NO` [SUBEROYLANILIDE HYDROXAMIC ACID], the “IC50 of cell viability” value in test [1] was 2.37 µM. In test [2], the efficacy was -58.6%.

On to `C[n+]1cc2c3c(ccc2c2ccc4cc5c(cc4c21)OCO5)OCO3` [Sanguinarine], for which the “IC50 of cell viability” value in test [1] is 8.41 µM. Besides, the efficacy in test [2] was -87.7%.

With `CN[C@H]1CC[C@@H](c2ccc(Cl)c(Cl)c2)c2ccccc21` [Sertraline hydrochloride (Zoloft)], the “IC50 of cell viability” value in test [1] is 15 µM. Besides, in test [2], the efficacy was -39.9%.

`CC(C)COC(=O)OCN1C(=O)CN(CCN2CC(=O)N(COC(=O)OCC(C)C)C(=O)C2)CC1=O` [Sobuzoxane]: the “IC50 of cell viability” value in test [1] was 0.841 µM. The efficacy in test [2] is -56.1%.

Turning to `O=C(CCCCCCC(=O)Nc1ccccc1)NO` [Suberoylanilide Hydroxamic Acid], in test [1], the “IC50 of cell viability” value was found to be 0.0531 µM. Besides, the efficacy in test [2] was -43.5%.

`O=c1n(CC2CO2)c(=O)n(CC2CO2)c(=O)n1CC1CO1` (stereo not given) [TEROXIRONUM]: the “IC50 of cell viability” value in test [1] worked out at 4.22 µM. Besides, the efficacy in test [2] was -43.7%.

As to `C[CH2][Hg][S]c1ccccc1C(=O)[O-].[Na+]` [THIMEROSAL], the “IC50 of cell viability” value in test [1] is 2.99 µM. Further, the efficacy in test [2] was -86.9%.

With `CCOC(=O)c1c(N)sc2c1CCN(Cc1ccccc1)C2` [TINORIDINE HYDROCHLORIDE], the “IC50 of cell viability” value in test [1] came to 11.9 µM. Also, the efficacy in test [2] is -45.5%.

Consider `C[N+]12CCCC[C@@H]1CCC(=C(c1cccs1)c1cccs1)C2` (stereo not given in full) [TIQUIZIUM BROMIDE], for which the “IC50 of cell viability” value in test [1] came to 1.88 µM. For the same compound, the efficacy in test [2] is -51.7%.

Regarding `Cl.CC[C@@]1(O)C(=O)OCC/2=C1/C=C/3N(CC4=C3N=C5C=CC(=C(CN(C)C)C5=C4)O)C2=O` [TOPOTECAN HYDROCHLORIDE], the “IC50 of cell viability” value in test [1] was 4.73 µM. Moreover, in test [2], the efficacy is -89.7%.
